The record followed here is US20240059689A1, “PURINE DERIVATIVES AS ANTICANCER AGENTS” (Tango Therapeutics, Inc., priority 2021, published 2024).

One test has as its system monoubiquitinated PCNA. Put plainly: AlphaLISA assay measuring monoubiquitinated PCNA in MDA-MB-436. Type of test: cell-based. As to conditions: Homo sapiens, MDA-MB-436, monoubiquitinated PCNA, read-out: Alpha Lisa IC50. An excerpt:
Table 1 also indicates IC50 values for exemplary compounds in an AlphaLISA assay measuring monoubiquitinated PCNA in a BRCA1 mutant cell line (MDA-MB-436; column 7).
(In general: Bead proximity is the source of the signal in Alpha formats.)

The next test concerns the target USP1-UAF1 (Homo sapiens, UniProt O94782). Put plainly: Ubiquitin Rhodamine assay of USP1-UAF1 activity. Type of test: biochemical. As to the method: Certain compounds of the disclosure were assessed for USP1-UAF1 activity in a Ubiquitin Rhodamine assay as described in Biology Example 1.
Another test deals with HCC1954. Kind of test: Viability assay, BRCA1 WT cell line HCC1954. Type of test: cell-based. As to conditions: Homo sapiens, HCC1954, viability, read-out: HCC1954 rel IC50. The source says:
(§1) Table 1 also indicates IC50 values in a viability assay for a non-isogenic pair of BRCA1 mutant (column 5-MDA-MB-436) and BRCA1 WT (column 6—HCC1954) cell lines. These values indicate the effect of treatment with compound on cell survival.

The next test concerns MDA-MB-436. Put plainly: Viability assay, BRCA1 mutant cell line MDA-MB-436. Type of test: cell-based. The note with it: Homo sapiens, MDA-MB-436, viability, BRCA1 mutant MDA-MB-436; read-out: MDA-MB-436 rel IC50.
Description: as §1

pIC50: −log10 of the molar value. Some results are limits rather than exact numbers.

USP1-UAF1, sequence (O94782 whole entry): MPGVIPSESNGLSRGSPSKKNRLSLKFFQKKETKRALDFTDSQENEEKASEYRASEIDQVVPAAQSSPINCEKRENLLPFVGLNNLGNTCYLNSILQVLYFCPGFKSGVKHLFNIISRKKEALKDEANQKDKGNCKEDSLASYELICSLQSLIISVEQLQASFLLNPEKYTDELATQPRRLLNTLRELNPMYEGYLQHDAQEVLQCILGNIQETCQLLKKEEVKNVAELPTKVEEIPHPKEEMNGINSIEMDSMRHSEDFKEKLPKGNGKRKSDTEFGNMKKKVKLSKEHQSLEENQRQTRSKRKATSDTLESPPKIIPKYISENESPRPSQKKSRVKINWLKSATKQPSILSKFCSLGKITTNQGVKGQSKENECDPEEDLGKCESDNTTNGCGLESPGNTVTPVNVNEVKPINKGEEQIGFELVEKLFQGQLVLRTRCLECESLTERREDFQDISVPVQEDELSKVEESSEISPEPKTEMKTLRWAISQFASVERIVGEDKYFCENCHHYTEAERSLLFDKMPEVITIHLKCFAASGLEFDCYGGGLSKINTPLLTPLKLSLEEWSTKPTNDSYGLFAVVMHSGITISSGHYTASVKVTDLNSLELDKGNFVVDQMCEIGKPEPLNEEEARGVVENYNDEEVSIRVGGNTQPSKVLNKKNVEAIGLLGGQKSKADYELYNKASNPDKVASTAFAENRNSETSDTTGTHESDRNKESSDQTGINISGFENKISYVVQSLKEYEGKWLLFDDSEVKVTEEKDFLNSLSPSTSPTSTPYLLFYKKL
USP1-UAF1, sequence (Q8TAF3 whole entry partner): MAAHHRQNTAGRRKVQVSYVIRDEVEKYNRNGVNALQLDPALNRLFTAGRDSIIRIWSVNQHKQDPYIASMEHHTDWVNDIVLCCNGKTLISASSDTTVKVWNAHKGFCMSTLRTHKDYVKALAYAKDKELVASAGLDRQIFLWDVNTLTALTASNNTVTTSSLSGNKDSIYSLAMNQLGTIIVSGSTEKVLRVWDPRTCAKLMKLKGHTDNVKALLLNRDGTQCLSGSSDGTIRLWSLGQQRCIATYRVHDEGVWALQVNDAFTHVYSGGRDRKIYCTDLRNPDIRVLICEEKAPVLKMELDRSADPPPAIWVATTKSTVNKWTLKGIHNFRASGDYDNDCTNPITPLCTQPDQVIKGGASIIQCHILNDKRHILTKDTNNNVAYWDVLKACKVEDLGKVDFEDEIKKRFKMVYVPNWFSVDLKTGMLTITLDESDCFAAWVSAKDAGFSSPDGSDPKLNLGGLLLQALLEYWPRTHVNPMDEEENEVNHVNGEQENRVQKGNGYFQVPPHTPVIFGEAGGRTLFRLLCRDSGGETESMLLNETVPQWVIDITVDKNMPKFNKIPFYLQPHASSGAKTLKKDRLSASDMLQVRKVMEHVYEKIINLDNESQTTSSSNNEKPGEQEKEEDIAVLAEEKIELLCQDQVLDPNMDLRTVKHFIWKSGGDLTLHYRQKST

For orientation: pIC50 means the negative decadic logarithm of the IC50, by convention in mol/L. Turning to `COc1ncnc(C2(C)CC2)c1-c1ncc2c(n1)n(Cc1ccc(-c3nc(C(F)(F)F)cn3C)cc1)c(=N)n2CC(F)(F)F` [Example T-137, 2-[4-methoxy-6-(1-methylcyclopropyl)pyrimidin-5-yl]-9-[[4-[1-methyl-4-(trifluoromethyl)imidazol-2-yl]phenyl]methyl]-7-(2,2,2-trifluoroethyl)purin-8-imine], the pIC50 is 6.60 to 7.00 in the test on monoubiquitinated PCNA, 5.00 to 7.00 at USP1-UAF1, at most 5.00 in the test on HCC1954 and 6.60 to 7.00 in the test with MDA-MB-436.
For the compound `CCOc1cc(C(F)(F)F)nn1-c1ccc(Cn2c(=N)n(CC(F)(F)F)c3cnc(-c4c(C(F)(F)F)cnn4C)nc32)cc1` [Example T-138, 9-[[4-[5-ethoxy-3-(trifluoromethyl)pyrazol-1-yl]phenyl]methyl]-2-[2-methyl-4-(trifluoromethyl)pyrazol-3-yl]-7-(2,2,2-trifluoroethyl)purin-8-imine], the pIC50 with monoubiquitinated PCNA was 6.60 to 7.00; against USP1-UAF1 it was 7.00 to 7.52; with HCC1954, 5.00 to 6.60; in the test with MDA-MB-436 it was 6.60 to 7.00.
As to `CCn1c(=N)n(Cc2ccc(-c3nc(C(F)(F)F)cn3C)cc2)c2nc(-c3c(OC)ncnc3C3CC3)ncc21` [Example T-139, 2-(4-cyclopropyl-6-methoxy-pyrimidin-5-yl)-7-ethyl-9-[[4-[1-methyl-4-(trifluoromethyl)imidazol-2-yl]phenyl]methyl]purin-8-imine], the pIC50 was above 7.00 in the test with monoubiquitinated PCNA, 7.00 to 7.52 against USP1-UAF1, at most 5.00 in the test with HCC1954 and above 7.00 in the test with MDA-MB-436.
For `Cn1cc(C(F)(F)F)nc1-c1ccc(Cn2c(=N)n(C)c3cnc(-c4c(OC(F)(F)F)ccnc4C4CC4)nc32)cc1` [Example T-140, 2-[2-cyclopropyl-4-(trifluoromethoxy)-3-pyridyl]-7-methyl-9-[[4-[1-methyl-4-(trifluoromethyl)imidazol-2-yl]phenyl]methyl]purin-8-imine], the pIC50 was above 7.00 in the test with monoubiquitinated PCNA, 7.00 to 7.52 at USP1-UAF1, at most 5.00 in the test on HCC1954 and above 7.00 in the test with MDA-MB-436.
Regarding `COc1nccc(C2CC2)c1-c1ncc2c(n1)n(Cc1ccc(-c3nc(C(F)(F)F)cn3C)cc1)c(=N)n2CC(F)(F)F` [Example T-141, 2-(4-cyclopropyl-2-methoxy-3-pyridyl)-9-[[4-[1-methyl-4-(trifluoromethyl)imidazol-2-yl]phenyl]methyl]-7-(2,2,2-trifluoroethyl)purin-8-imine], the pIC50 in the test with monoubiquitinated PCNA is 6.60 to 7.00; on USP1-UAF1, 5.00 to 7.00; with HCC1954, at most 5.00; in the test on MDA-MB-436, 6.60 to 7.00.
As to `COc1ncnc(C2CC2)c1-c1ncc2c(n1)n([C@@H](C)c1ccc(-c3nc(C(F)(F)F)cn3C)cc1)c(=N)n2C` [Example T-142, 2-(4-cyclopropyl-6-methoxy-pyrimidin-5-yl)-7-methyl-9-[(1S)-1-[4-[1-methyl-4-(trifluoromethyl)imidazol-2-yl]phenyl]ethyl]purin-8-imine], the pIC50 in the test on monoubiquitinated PCNA is 6.60 to 7.00; at USP1-UAF1 it was 5.00 to 7.00; in the test on HCC1954, at most 5.00; in the test on MDA-MB-436, 6.60 to 7.00.
On to `COc1ncnc(C2CC2)c1-c1ncc2c(n1)n([C@H](C)c1ccc(-c3nc(C(F)(F)F)cn3C)cc1)c(=N)n2CC(F)(F)F` [Example T-143, (R)-2-(4-cyclopropyl-6-methoxypyrimidin-5-yl)-9-(1-(4-(1-methyl-4-(trifluoromethyl)-1H-imidazol-2-yl)phenyl)ethyl)-7-(2,2,2-trifluoroethyl)-7,9-dihydro-8H-purin-8-imine], for which the pIC50 in the test on monoubiquitinated PCNA was above 7.00; against USP1-UAF1, 7.00 to 7.52; in the test with HCC1954, at most 5.00; in the test with MDA-MB-436 it was above 7.00.
With `COc1ncnc(C(F)(F)F)c1-c1ncc2c(n1)n(Cc1ccc(-c3nc(C(F)(F)F)cn3C)cc1)c(=N)n2CC(F)(F)F` [Example T-144, 2-[4-methoxy-6-(trifluoromethyl)pyrimidin-5-yl]-9-[[4-[1-methyl-4-(trifluoromethyl)imidazol-2-yl]phenyl]methyl]-7-(2,2,2-trifluoroethyl)purin-8-imine], the pIC50 in the test on monoubiquitinated PCNA is 6.60 to 7.00; against USP1-UAF1 it was 7.00 to 7.52; with HCC1954 it was at most 5.00; in the test with MDA-MB-436, 6.60 to 7.00.
